Measured values as given in patent US12492230B2, “Antigenic peptides deriving from secretogranin V and uses thereof for the diagnosis and treatment of type 1 diabetes” (INSERM (Institut National de la Santé et de la Recherche …, priority 2018, dated 2025).
Where no end group is shown, it is not given here.

Key:
Type in all cases: cell-based, human
[1] = system: circulating CD8+ T cells; assay: Ex vivo combinatorial HLA-A2 multimer (MMr) staining of PBMCs; conditions: for frequency of circulating MMr+ CD8+ T cells (in words): HLA-A2+ recent-onset T1D and healthy subjects; for median frequency in peripheral blood: T1D patients, fraction of CD8+ T cells
Protocol: All peptides were synthesized at >90% purity (Synpeptides). HLA-A2 MMrs were produced as described (Leisner et al., 2008) and staining performed in the presence of 50 nM dasatinib (Lissina et al., 2009), as described (Culina et al., 2018). Briefly, cryopreserved PBMCs were magnetically depleted of CD8^− cells (StemCell Technologies), stained with the combinatorial MMr panels (Hadrup et al., 2009) and acquired using a FACSAria III cytometer.

[2] = system: pancreas-infiltrating cells of HLA-A2+ T1D patients; assay: In-situ HLA-A2 MMr staining on pancreas sections; conditions: 2 HLA-A2+ T1D cases, nPOD tissue sections
Protocol: In-situ staining was performed as described (Culina et al., 2018). Unfixed, frozen sections were dried for 2 h, loaded with 1 μg of MMrs overnight at 4° C., washed gently with phosphate-buffered saline and fixed in 2% paraformaldehyde for 10 min. After a further wash, endogenous peroxidase activity was blocked with 0.3% H2O2. Sections were then incubated serially with rabbit anti-phycoerythrin, horseradish peroxidase-conjugated swine anti-rabbit and 3,3′-diaminobenzidine tetrahydrochloride substrate (ThermoFisher). After a final wash, sections were counterstained with hematoxylin, dehydrated via sequential passages in 95-100% ethanol and xylene, mounted and analyzed using a Nikon Eclipse Ni microscope with NIS-Elements Analysis D software v4.40.

[3] = system: circulating CD8+ T cells; assay: Ex vivo HLA-A3 multimer (MMr) staining of PBMCs; conditions: for positive hits for the HLA-A3 restriction: HLA-A3+ T1D and healthy donors
Protocol: HLA-A3 MMrs were produced and used as described (Gonzalez-Duque, Cell Metab 2018). Each peptide-HLA-A3 complex was used at a final concentration of 8-27 nM and conjugated with fluorochrome-labeled streptavidin at a 1:4 ratio. The concentration of each fluorescent MMr was corrected for the variable staining index of each streptavidin, in order to obtain a distinct double-MMr+ population for each fluorochrome pair. Compensations were set using fluorescence-minus-one samples (i.e. omitting one streptavidin at a time).
PBMCs were thawed at 37° C. and immediately diluted in pre-warmed AIM-V medium. Following centrifugation and one additional wash in AIM-V, PBMCs were counted and rested in the presence of 50 nM dasatinib for 30 min at 37° C. to prevent internalization of T-cell receptors before magnetic depletion of CD8^− cells (StemCell Technologies). Staining was performed for 20 min at 20° C. in […] PBS-dasatinib for 10^7 cells with combinatorial double-coded MMr panels, followed, without washing, by CD3-APC-H7 (RRID AB_1645475), CD8-PE-Cy7 (AB_396852), CD45RA-FITC (AB_395879), CCR7-BV421 (AB_2728119) monoclonal antibodies and Live/Dead Aqua (ThermoFisher) staining at 4° C. for 20 min. After one wash, cells were acquired using a FACSAria III cytometer. […] Flow cytometry data were analyzed with FlowJo v10 and Graphpad Prism 7.0 software. Cells were sequentially gated on small lymphocytes, singlets, live cells (Live/Dead Aqua^−), CD3^+CD8^+ T cells and total PE^+, PE-CF594^+, APC^+, BV650^+, BV711^+ and BV786^+MMr^+ T cells. Using Boolean operators, these latter gates allowed to selectively visualize each double-MMr^+ population by including only those events positive for the corresponding fluorochrome pair. For example, SCG3166-174 MMr^+ cells (PE^+PE-CF594^+) were visualized by gating on events that were PE^+PE-CF594^+APC^−BV650^−BV711^−BV786^−. Events negative for all MMr fluorochromes (PE^−PE-CF594^−APC^−BV650^−BV711^−BV786^−) were represented in the same PE/PE-CF-594 dot plot to set the double-MMr^+ gate. CD45RA and CCR7 staining was subsequently visualized by gating on these MMr^+ cells.

[4] = HLA-A2+ healthy donors, screening

Substance: CHGA344-352: HLA-A2-restricted HLA-eluted β-cell peptide from chromogranin A, maps to the WE-14 neuropeptide (KMDQLAKEL)
- cognate naïve CD8+ T-cell repertoire (frequency 1-50/10^6 CD8+ T cells, clustered MMr staining, in ≥50% of individuals) [1, 4]: validated

Substance: FLSGAVNRL
- cognate naïve CD8+ T-cell repertoire (frequency 1-50/10^6 CD8+ T cells, clustered MMr staining, in ≥50% of individuals) [1, 4]: validated
- frequency of circulating MMr+ CD8+ T cells (in words) [1]: particularly high and clustered

Substance: IAPP15-17/IAPP5-10: peptide splice product from fusion of IAPP15-17 and IAPP5-10, HLA-A2-restricted (VALKLQVFL)
- in-situ MMr staining of pancreas sections [2]: MMr^+ cells could be detected
- recognition by circulating CD8+ T cells, donors [1, 4]: 1 of 6
- median frequency in peripheral blood [1]: 1.6×10^−6

Substance: ISL1276-284: HLA-A2-restricted HLA-eluted peptide from insulin gene enhancer protein ISL1 (GLQANPVEV)
- in-situ MMr staining of pancreas sections [2]: MMr^+ cells could be detected
- cognate naïve CD8+ T-cell repertoire (frequency 1-50/10^6 CD8+ T cells, clustered MMr staining, in ≥50% of individuals) [1, 4]: validated
- median frequency in peripheral blood [1]: 7.2×10^−6

Substance: KCNK16129-137: HLA-A2-restricted HLA-eluted β-cell peptide from KCNK16 (ALLGIPLNV)
- cognate naïve CD8+ T-cell repertoire (frequency 1-50/10^6 CD8+ T cells, clustered MMr staining, in ≥50% of individuals) [1, 4]: validated

Substance: KIF1A860-868: HLA-A3-restricted islet peptide from KIF1A (LLYPVPLVH)
- positive hits for the HLA-A3 restriction [3]: positive hits

Substance: KIF1A1347-1355: HLA-A2-restricted HLA-eluted β-cell peptide from kinesin family member 1A (VLDTSVAYV)
- cognate naïve CD8+ T-cell repertoire (frequency 1-50/10^6 CD8+ T cells, clustered MMr staining, in ≥50% of individuals) [1, 4]: validated

Substance: PCSK230-38: HLA-A2-restricted HLA-eluted β-cell peptide from proprotein convertase 2 (FTNHFLVEL)
- cognate naïve CD8+ T-cell repertoire (frequency 1-50/10^6 CD8+ T cells, clustered MMr staining, in ≥50% of individuals) [1, 4]: validated

Substance: PNMA250-58: HLA-A3-restricted islet peptide candidate, not validated (RLLGKIFRK)
- validation as CD8+ T-cell epitopes ([3]; second validation round, PBMCs from T1D and healthy donors): single exception

Substance: PTPRN576-580/708-711: spliced peptide derived from the fusion of two non-contiguous IA-2 sequences, HLA-A3 (SVLLTRLAK)
- positive hits for the HLA-A3 restriction [3]: identified

Substance: RLKPSLVGK
- positive hits for the HLA-A3 restriction [3]: positive hits

Substance: SCG3166-174: HLA-A3-restricted islet peptide from secretogranin III (AVFDKIVSK)
- positive hits for the HLA-A3 restriction [3]: positive hits

Substance: UCN31-9: HLA-A2-restricted HLA-eluted β-cell peptide from urocortin-3 leader sequence (MLMPVHFLL)
- cognate naïve CD8+ T-cell repertoire (frequency 1-50/10^6 CD8+ T cells, clustered MMr staining, in ≥50% of individuals) [1, 4]: validated
- frequency of circulating MMr+ CD8+ T cells (in words) [1]: particularly high and clustered

Substance: UCN346-56: HLA-A3-restricted islet peptide from urocortin-3 (GQWEDASLLSK)
- positive hits for the HLA-A3 restriction [3]: positive hits

Substance: YLQGQRLDNV
- cognate naïve CD8+ T-cell repertoire (frequency 1-50/10^6 CD8+ T cells, clustered MMr staining, in ≥50% of individuals) [1, 4]: validated

Substance: ZnT8186-184: positive control islet peptide (VAANIVLTV; UniProt Q8IWU4 186-194, looked up, fragment) [reference compound]
- in-situ MMr staining of pancreas sections [2]: observed
